Results reported in article PMC10562414, “GLP-1R signaling neighborhoods associate with the susceptibility to adverse drug reactions of incretin mimetics” (Nature Communications, 2023).

Columns and labels:
[1] = test system: GLP-1R-expressing HEK293 cells (phosphoproteome); experiment: Phosphoproteomics, GLP-1R-transfected cells, 30 min (experiment 2); format: cell-based, human; settings: GLP transfection, 1 μM
Procedure: (§1) P values were calculated by a two-sided unpaired t-test.
(§2) HEK293 cells (350,000 cells/mL) were transfected in suspension using 3 μg of linear PEI (MW 25,000) per 1 μg of plasmid DNA and seeded onto poly-D-lysine-coated 60 mm dishes at a density of 1,750,000 cells per dish. After a 24-h incubation, cells were washed twice with PBS and placed in starvation media (DMEM with penicillin/streptomycin). After a 48-h incubation, cells were washed twice with HBSS and maintained in the same buffer. […] Cell extracts were prepared as previously described[64]–[66]. In short, 200 μL of the lysis buffer preheated at 95 °C (4% sodium dodecyl sulfate in 50 mM Tris adjusted to pH 8.5) was added to the cells. The samples were then denatured at 95 °C for 10 min, placed on ice and then sonicated using a probe sonicator (3 sec on, 3 sec off pulse, 1 min, 30% amplitude) (Branson). Lysate protein concentration was determined using the Pierce bicinchoninic acid assay kit (Thermo Fisher Scientific) according to the manufacturer’s instructions. The lysates were reduced using 5 mM dithiothreitol for 1 h at room temperature and alkylated using 15 mM iodoacetamide for 1 h at room temperature in the dark. Proteins were precipitated and digested on beads using MagReSyn Amine magnetic beads (ReSyn Biosciences) according to the manufacturer’s instructions. Protein digestion was conducted overnight at 37 °C with lysyl endopeptidase (LysC, Wako) (1:150 LysC/protein, w/w) and trypsin (1:300 trypsin/protein, w/w). 20% TFA, 2 M glycolic acid in 80% ACN were added to the samples at a 1:1 ratio for phosphopeptide enrichment using MagReSyn TiO2 magnetic beads (ReSyn Biosciences) according to the manufacturer’s instructions. The enriched phosphopeptides were dried overnight in a SpeedVac, resuspended into 5% formic acid (FA), desalted using StageTip (Thermo Fisher Scientific) according to the manufacturer’s instructions and dried in a SpeedVac. The experiment was performed in biological triplicates.
(§3) All parameters and settings regarding the acquisition of the proteomics data can be found in Supplementary Data 11, 12. For data acquisition, the instrument was set to peptide mode, with a trapping pressure set as low (2mTorr). An EASY-Spray Source (Thermo Fisher Scientific) was used and the column temperature was maintained with the integrated, temperature-controlled heater at 55 °C throughout the experiment. For the data presented in Fig. 5d, the column was heated at 50 °C following the manufacturer’s instructions (IonOpticks).
Acquired raw files were converted to mzML format by MSConvert (version 3.0.21258)[67] applying peak picking of the mass spectra with the vendor-provided algorithm (Thermo Fisher Scientific). The mzML files were analyzed using the FragPipe GUI v18 for both library and DIA search. […] Trypsin with up to 2 missed cleavages was set as digestion enzyme, oxidation of methionine, acetylation of the N-terminus and phosphorylation on serine, threonine and tyrosine (maximal occurrence was set to three) were set as variable modifications. Carbamidomethylation of cysteine residues was set as a fixed modification. Peptide length was restricted to 7 to 50 amino acids, and 500 to 5000 Da. […] DIA files were analyzed by DIA-NN 1.8.1[71], [72] using the previously generated library and monitor-command mode. Peptide quantification was performed based on the fragment elution profiles from the MS2 level (area under the curve). […]

[2] = test system: GLP-1R-expressing HEK293 cells (phosphoproteome); experiment: Phosphoproteomics time course (5, 15, 30, 60 min) in GLP-1R-expressing cells; format: cell-based, human
Procedure: as §1, §2, §3
Acquired raw files were converted to mzML format by MSConvert (version 3.0.21258)[67] applying peak picking of the mass spectra with the vendor-provided algorithm (Thermo Fisher Scientific). The mzML files were analyzed using the FragPipe GUI v18 for both library and DIA search. […] Trypsin with up to 2 missed cleavages was set as digestion enzyme, oxidation of methionine, acetylation of the N-terminus and phosphorylation on serine, threonine and tyrosine (maximal occurrence was set to three) were set as variable modifications. Carbamidomethylation of cysteine residues was set as a fixed modification. Peptide length was restricted to 7 to 50 amino acids, and 500 to 5000 Da. The precursor tolerance was set to ±20 ppm, fragment mass tolerance to 20 ppm and MSBooster was enabled. The resulting peptide-spectrum matches were adjusted to a 1% false discovery rate with Percolator[69] as part of the Philosopher toolkit (v4.4)[70] and converted to a spectra library. DIA files were analyzed by DIA-NN 1.8.1[71], [72] using the previously generated library and monitor-command mode. Peptide quantification was performed based on the fragment elution profiles from the MS2 level (area under the curve).
All further data processing was performed in R (version 4.2.1). Only phosphopeptides with a localization score of at least 0.75 were considered for further analysis. […]

[3] = 15min, relative to time-matched vehicle condition, p.value […], passed.all.criteria 0
[4] = 60min, relative to time-matched vehicle condition, p.value […], passed.all.criteria 0

## N#Cc1ccc(COc2cccc(C3CCN(Cc4nc5ccc(C(=O)O)cc5n4C[C@@H]4CCO4)CC3)n2)c(F)c1 [Danuglipron]
[1]; vs time-matched vehicle, p […], n = 3
  log2.foldchange, PABPN1 S19: 1.128
[1]; vs vehicle, p 0.15884, n = 3
  log2.foldchange, VPS51 S13: -0.5399
[1]; vs vehicle, p 0.656982, n = 3
  log2.foldchange, EIF3J S20: -0.08041
[1]; vs vehicle, p 0.693473, n = 3
  log2.foldchange, EIF3J S11: -0.5463
[1]; vs vehicle, p 0.842243, n = 3
  log2.foldchange, VPS51 S18: 0.02396
[2]; 1 μM
  regulation of RAB1B and α-synuclein phosphorylation, in words: significantly regulated by danuglipron
[2]; 1 μM, 30 min
  number of phosphopeptides overlapping between danuglipron and semaglutide treatments: 8
[2]; 1 μM, 30 min, drug-specific, vs vehicle
  number of significantly altered phosphopeptides: 220
[2]; 5min, repA
  Normalized phosphoproteomics data, ESYT2 S691 (A0FGR8): 19.6049
  Normalized phosphoproteomics data, HMX3 S60 (A6NHT5): 20.3906
  Normalized phosphoproteomics data, HNRNPA1L3 Y250 (A0A2R8Y4L2): 20.6785
  Normalized phosphoproteomics data, POM121C T710 (A8CG34): 20.0234
  Normalized phosphoproteomics data, SBNO1 S794 (A3KN83): 17.9318
[2]; 5min, repB
  Normalized phosphoproteomics data, ESYT2 S691 (A0FGR8): 19.6976
  Normalized phosphoproteomics data, HMX3 S60 (A6NHT5): 20.283
  Normalized phosphoproteomics data, HNRNPA1L3 Y250 (A0A2R8Y4L2): 20.3164
  Normalized phosphoproteomics data, POM121C T710 (A8CG34): 20.7371
  Normalized phosphoproteomics data, SBNO1 S794 (A3KN83): 18.211
[2]; 5min, repC
  Normalized phosphoproteomics data, ESYT2 S691 (A0FGR8): 21.1682
  Normalized phosphoproteomics data, HMX3 S60 (A6NHT5): 19.9991
  Normalized phosphoproteomics data, HNRNPA1L3 Y250 (A0A2R8Y4L2): 20.6414
  Normalized phosphoproteomics data, POM121C T710 (A8CG34): 20.3991
  Normalized phosphoproteomics data, SBNO1 S794 (A3KN83): 18.5685
[2]; 5min, relative to time-matched vehicle condition, p.value 0.0181801, passed.all.criteria 0
  log2.foldchange, FOXK2 S30 (Q01167): 0.5529
[2]; 5min, relative to time-matched vehicle condition, p.value 0.0905175, passed.all.criteria 0
  log2.foldchange, EIF3J S11 (O75822): -0.3791
[2]; 5min, relative to time-matched vehicle condition, p.value 0.889419, passed.all.criteria 0
  log2.foldchange, SCFD1 S14 (Q8WVM8): 0.04613
[2]; 5min, relative to time-matched vehicle condition, p.value 0.907346, passed.all.criteria 0
  log2.foldchange, CABLES2 T26;S27 (Q9BTV7): 0.07188
[2]; 5min, relative to time-matched vehicle condition, p.value […], passed.all.criteria 0
  log2.foldchange, POLE4 S25 (Q9NR33): 0.5824
[2]; 15min, repA
  Normalized phosphoproteomics data, ESYT2 S691 (A0FGR8): 18.6451
  Normalized phosphoproteomics data, HMX3 S60 (A6NHT5): 20.5059
  Normalized phosphoproteomics data, HNRNPA1L3 Y250 (A0A2R8Y4L2): 20.4577
  Normalized phosphoproteomics data, POM121C T710 (A8CG34): 20.5017
  Normalized phosphoproteomics data, SBNO1 S794 (A3KN83): 18.6084
[2]; 15min, repB
  Normalized phosphoproteomics data, ESYT2 S691 (A0FGR8): 18.4413
  Normalized phosphoproteomics data, HMX3 S60 (A6NHT5): 22.3446
  Normalized phosphoproteomics data, HNRNPA1L3 Y250 (A0A2R8Y4L2): 20.4067
  Normalized phosphoproteomics data, POM121C T710 (A8CG34): 18.6564
  Normalized phosphoproteomics data, SBNO1 S794 (A3KN83): 17.9968
[2]; 15min, repC
  Normalized phosphoproteomics data, ESYT2 S691 (A0FGR8): 20.8902
  Normalized phosphoproteomics data, HMX3 S60 (A6NHT5): 20.8902
  Normalized phosphoproteomics data, HNRNPA1L3 Y250 (A0A2R8Y4L2): 20.9108
  Normalized phosphoproteomics data, POM121C T710 (A8CG34): 19.3031
  Normalized phosphoproteomics data, SBNO1 S794 (A3KN83): 18.3915
[2]; 15min, relative to time-matched vehicle condition, p.value 0.0462694, passed.all.criteria 0
  log2.foldchange, EIF3J S11 (O75822): 0.3639
[2]; 15min, relative to time-matched vehicle condition, p.value 0.844107, passed.all.criteria 0
  log2.foldchange, SCFD1 S14 (Q8WVM8): 0.06372
[2]; [3]
  log2.foldchange, CABLES2 T26;S27 (Q9BTV7): 0.288
  log2.foldchange, FOXK2 S30 (Q01167): 0.1878
  log2.foldchange, POLE4 S25 (Q9NR33): -0.08464
[2]; 30min, repA
  Normalized phosphoproteomics data, ESYT2 S691 (A0FGR8): 21.4861
  Normalized phosphoproteomics data, HMX3 S60 (A6NHT5): 20.1311
  Normalized phosphoproteomics data, HNRNPA1L3 Y250 (A0A2R8Y4L2): 20.8036
  Normalized phosphoproteomics data, POM121C T710 (A8CG34): 20.7324
  Normalized phosphoproteomics data, SBNO1 S794 (A3KN83): 18.5741
[2]; 30min, repB
  Normalized phosphoproteomics data, ESYT2 S691 (A0FGR8): 20.3489
  Normalized phosphoproteomics data, HMX3 S60 (A6NHT5): 20.2063
  Normalized phosphoproteomics data, HNRNPA1L3 Y250 (A0A2R8Y4L2): 19.9638
  Normalized phosphoproteomics data, POM121C T710 (A8CG34): 20.3008
  Normalized phosphoproteomics data, SBNO1 S794 (A3KN83): 18.1584
[2]; 30min, repC
  Normalized phosphoproteomics data, ESYT2 S691 (A0FGR8): 19.608
  Normalized phosphoproteomics data, HMX3 S60 (A6NHT5): 21.342
  Normalized phosphoproteomics data, HNRNPA1L3 Y250 (A0A2R8Y4L2): 21.4798
  Normalized phosphoproteomics data, POM121C T710 (A8CG34): 19.571
  Normalized phosphoproteomics data, SBNO1 S794 (A3KN83): 18.2269
[2]; 30min, relative to time-matched vehicle condition, p.value 0.0332159, passed.all.criteria 0
  log2.foldchange, POLE4 S25 (Q9NR33): 0.4522
[2]; 30min, relative to time-matched vehicle condition, p.value 0.0661459, passed.all.criteria 0
  log2.foldchange, CABLES2 T26;S27 (Q9BTV7): -0.4521
[2]; 30min, relative to time-matched vehicle condition, p.value 0.177246, passed.all.criteria 0
  log2.foldchange, TRAF2 T7;S11 (Q12933): 1.124
[2]; 30min, relative to time-matched vehicle condition, p.value 0.184134, passed.all.criteria 0
  log2.foldchange, FOXK2 T13 (Q01167): -0.3505
[2]; 30min, relative to time-matched vehicle condition, p.value […], passed.all.criteria 0
  log2.foldchange, SCFD1 S14 (Q8WVM8): -0.2911
[2]; 60min, repA
  Normalized phosphoproteomics data, ESYT2 S691 (A0FGR8): 20.822
  Normalized phosphoproteomics data, HMX3 S60 (A6NHT5): 21.3332
  Normalized phosphoproteomics data, HNRNPA1L3 Y250 (A0A2R8Y4L2): 20.6441
  Normalized phosphoproteomics data, POM121C T710 (A8CG34): 20.5636
  Normalized phosphoproteomics data, SBNO1 S794 (A3KN83): 19.2753
[2]; 60min, repB
  Normalized phosphoproteomics data, ESYT2 S691 (A0FGR8): 21.3269
  Normalized phosphoproteomics data, HMX3 S60 (A6NHT5): 22.1586
  Normalized phosphoproteomics data, HNRNPA1L3 Y250 (A0A2R8Y4L2): 20.7268
  Normalized phosphoproteomics data, POM121C T710 (A8CG34): 20.6117
  Normalized phosphoproteomics data, SBNO1 S794 (A3KN83): 18.9035
[2]; 60min, repC
  Normalized phosphoproteomics data, ESYT2 S691 (A0FGR8): 21.6663
  Normalized phosphoproteomics data, HMX3 S60 (A6NHT5): 20.1861
  Normalized phosphoproteomics data, HNRNPA1L3 Y250 (A0A2R8Y4L2): 20.5504
  Normalized phosphoproteomics data, POM121C T710 (A8CG34): 19.5289
  Normalized phosphoproteomics data, SBNO1 S794 (A3KN83): 18.62
[2]; 60min, relative to time-matched vehicle condition, p.value 0.629383, passed.all.criteria 0
  log2.foldchange, POLE4 S25 (Q9NR33): 0.05873
[2]; 60min, relative to time-matched vehicle condition, p.value 0.819487, passed.all.criteria 0
  log2.foldchange, SCFD1 S14 (Q8WVM8): -0.06624
[2]; [4]
  log2.foldchange, CABLES2 T26;S27 (Q9BTV7): -0.3341
  log2.foldchange, EIF3J S11 (O75822): -0.413
  log2.foldchange, TRAF2 T7;S11 (Q12933): 0.4682
